The mortality is the percentage killed.

Each structure is given as a SMILES string.

The subject of this assay is Coptotermes formosanus. The assay can be described thus: Termiticidal activity against Coptotermes formosanus assessed as mortality at 5 uM up to 14 days by no choice test relative to control. Particulars: 336 h. Format: functional.
With `COc1ccc(COc2ccc3ccc(=O)oc3c2)cc1`, the mortality at 5 µM worked out at 41.4%. With `CC#CCOc1ccc2ccc(=O)oc2c1` [7-(2-BUTYNYLOXY)COUMARIN] the figure was 51.5%; with `CCCCCC#CCOc1ccc2ccc(=O)oc2c1` [7-(2-OCTYNYLOXY)COUMARIN], 28.3%. With `CCC#CCOc1ccc2ccc(=O)oc2c1` [7-(2-PENTYNYLOXY)COUMARIN] the figure was 32.3%; with `COc1cc(COc2ccc3ccc(=O)oc3c2)cc(OC)c1` [7-(3,5-DIMETHOXYBENZYLOXY)COUMARIN], 32.3%; with `O=c1ccc2ccc(OCCCc3ccccc3)cc2o1` [7-(3-PHENYLPROPOXY)COUMARIN], 16.2%. With `O=c1ccc2ccc(Oc3ccc([N+](=O)[O-])cc3)cc2o1` [7-(4-NITROPHENOXY)COUMARIN], the mortality at 5 µM came out at 62.6%. With `C=CCOc1ccc2ccc(=O)oc2c1` [7-ALLYLOXYCOUMARIN] the figure was 38.4%. The value for `O=c1ccc2ccc(OCc3ccccc3)cc2o1` [7-BENZYLOXYCOUMARIN] was 23.2%; that for `CCCCOc1ccc2ccc(=O)oc2c1` [7-BUTOXYCOUMARIN] was 19.2%; that for `O=C(/C=C/c1ccccc1)Oc1ccc2ccc(=O)oc2c1` [7-CINNAMOYLOXYCOUMARIN] was 12.1%. The value for `O=c1ccc2ccc(OC3CCCCC3)cc2o1` [7-CYCLOHEXYLOXYCOUMARIN] was 65.7%. With `CCCCCCCCCCCCOc1ccc2ccc(=O)oc2c1` [7-DODECYLOXYCOUMARIN], the mortality at 5 µM came out at 19.2%. With `CCCCCCCCCCCCCCCCOc1ccc2ccc(=O)oc2c1` [7-HEXADECYLOXYCOUMARIN] the figure was 3%; with `CC(C)COc1ccc2ccc(=O)oc2c1` [7-ISOBUTOXYCOUMARIN], 9.1%. For `CC(C)Oc1ccc2ccc(=O)oc2c1` [7-ISOPROPOXYCOUMARIN], the mortality at 5 µM came to 13.1%. With `CCCCCCCCCCCCCCCCCCOc1ccc2ccc(=O)oc2c1` [7-OCTADECYLOXYCOUMARIN] the figure was 8.1%. Consider `CCCCCCCCOc1ccc2ccc(=O)oc2c1` [7-OCTYLOXYCOUMARIN], for which the mortality at 5 µM was determined as 17.2%.

With `O=c1ccc2ccc(OCCc3ccccc3)cc2o1` [7-PHENETHOXYCOUMARIN], the mortality at 5 µM was determined as 10.1%. With `CCCOc1ccc2ccc(=O)oc2c1` [7-PROPOXYCOUMARIN], the mortality at 5 µM came to 16.2%. The value for `C/C=C/COc1ccc2ccc(=O)oc2c1` [(E)-7-(2-BUTENYLOXY)COUMARIN] was 33.3%; that for `CCOc1ccc2ccc(=O)oc2c1` [ETHOXYCOUMARIN] was 14.1%.

With `COc1ccc2ccc(=O)oc2c1` [HERNIARIN], the mortality at 5 µM turned out to be 13.1%.

For the origin of these results see ChEMBL document CHEMBL3045619, “Antitermite activity of 7-alkoxycoumarins and related analogs against Coptotermes formosanus Shiraki” (2012).
